Laboratory results as given in patent US20240182945A1, “PRODUCTS FOR REGULATION OF EUKARYOTIC AND MICROBIAL CELLS GROWTH” (priority 2021, published 2024).

Experiments:
Pseudomonas aeruginosa = conditions: cited from earlier work
[1] = system: S.aureus (PP) and MM in sputum from children with pneumonia; assay: Degree of eradication of PP and MM on Columbia agar with antibiotic at concentrations achievable at the site of infection; type: cell-based; set-up: key to Degree of primary pathogen eradication, evaluation of ABEPP: % of primary pathogen (PP) eliminated
Protocol: We next tried to select antibiotics based on building a probability model. Antibiotic efficacy was evaluated based on a novel parameters: • ABEPPMM100—antibiotic concentration that is required for the elimination of 100% “complex” PP+MM. • ABEPPMM99—antibiotic concentration that is required for the elimination of 99% “complex” PP+MM.
ABEPPMM90—antibiotic concentration that is required for the elimination of 90% “complex” PP+MM.
ABEPPMM50—antibiotic concentration that is required for the elimination of 50% “complex” PP+MM.
ABEPP100—antibiotic concentration that affecting on “complex” PP+MM is required for the elimination of 100% PP.
ABEPP99—antibiotic concentration that affecting on “complex” PP+MM is required for the elimination of 99% PP.
ABEPP90—antibiotic concentration that affecting on “complex” PP+MM is required for the elimination of 90% PP.
ABEPP50—antibiotic concentration that affecting on “complex” PP+MM is required for the elimination of 50% PP.
We used sputum from children with pneumonia, with S.aureus as confirmed PP. Patient 1—child • Patient 2—child • Patient 3—child

[2] = 3 h; cited from earlier work
[3] = system: bacteria of sputum from patients with lung diseases; assay: Sputum plated on 24-well plates with antibiotics at Cmax or C0-4 h, Algorithm #1 or #2; type: cell-based; further: key: '+'—presence of bacterial growth, antibiotic ineffective; '−'—absence of bacterial growth, antibiotic effective
Protocol: Pathological material (sputum) from patients with lung diseases was plated into wells of 24-well plates filled with a nutrient medium supplemented with erythrocytes 5%, to which antibiotics were added taken at different concentrations.
Group #1—antibiotics were taken at concentrations close to a maximum (peak) concentration achievable at the site of infection Cmax
Algorithm #1. Lab technician, analyzed the appearance of bacterial growth by comparing the signs of bacterial growth in each well supplemented with antibiotic(s) at certain timepoint, with the signs of bacterial growth in the same well at previous time point(s).
Algorithm #2. Lab technician analyzed the appearance of bacterial growth by comparing the signs of bacterial growth in each well supplemented with antibiotic(s) with bacterial growth in antibiotic-free control

[4] = system: bacteria of the biosample (persisters); assay: Neutropenic mice instilled with biosample and treated with antibiotic for 72 h, microbial growth in organs and blood; type: in vivo; conditions: neutropenic C57BL/6 mice treated for 72 h, agar with 100 ug/mL of the antibiotic
Protocol: Next, we confirmed that antibiotics selected with proposed algorithm are effective. Adult C57BL/6 mice were rendered neutropenic by injecting cyclophosphamide subcutaneously 4 days before infection (150 mg/kg of body weight), 1 day before infection (100 mg/kg), and 1 day after infection (100 mg/kg). Mice were anesthetized with 2% isoflurane and orally instilled with biosample (stored at +4 C). Briefly, nares were blocked, and mice aspirated 50 μL of the biosample into the lungs while being held vertically for 60 s.

[5] = system: bacteria of sputum from patients with lung diseases; assay: Standard antibiotic susceptibility study using the microbroth dilution method (Algorithm #3); type: cell-based; further: key: '+'—presence of bacterial growth, antibiotic ineffective; '−'—absence of bacterial growth, antibiotic effective
Source text: Algorithm #3—Standard antibiotic susceptibility study using the microbroth dilution method.

[6] = Patient 1, C0-1 h, 24 h of growth
[7] = Patient 1, C0-2 h, 24 h of growth
[8] = Patient 1, C0-3 h, 24 h of growth
[9] = Patient 1, C0-4 h, 24 h of growth
[10] = Patient 1, C0-6 h, 24 h of growth
[11] = Patient 1, C0-8 h, 24 h of growth
[12] = Patient 1, C0-12 h, 24 h of growth
[13] = Patient 1, C0-24 h, 24 h of growth
[14] = Patient 1, C2-3 h, 24 h of growth
[15] = Patient 1, C3-4 h, 24 h of growth
[16] = Patient 1, C4-6 h, 24 h of growth
[17] = Patient 1, C6-8 h, 24 h of growth
[18] = Patient 1, C8-12 h, 24 h of growth
[19] = Patient 1, C12-24 h, 24 h of growth
[20] = Patient 1, Cmax × 2, 24 h of growth
[21] = Patient 2, C0-3 h, 24 h of growth
[22] = Patient 2, C0-4 h, 24 h of growth
[23] = Patient 2, C0-6 h, 24 h of growth
[24] = Patient 2, C0-8 h, 24 h of growth
[25] = Patient 2, C0-12 h, 24 h of growth
[26] = Patient 2, C0-24 h, 24 h of growth
[27] = Patient 2, C3-4 h, 24 h of growth
[28] = Patient 2, C4-6 h, 24 h of growth
[29] = Patient 2, C6-8 h, 24 h of growth
[30] = Patient 2, C8-12 h, 24 h of growth
[31] = Patient 2, C12-24 h, 24 h of growth
[32] = Patient 3, C0-3 h, 24 h of growth
[33] = Patient 3, C0-4 h, 24 h of growth
[34] = Patient 3, C0-6 h, 24 h of growth
[35] = Patient 3, C0-8 h, 24 h of growth
[36] = Patient 3, C0-12 h, 24 h of growth
[37] = Patient 3, C0-24 h, 24 h of growth
[38] = Patient 3, C3-4 h, 24 h of growth
[39] = Patient 3, C4-6 h, 24 h of growth
[40] = Patient 3, C6-8 h, 24 h of growth
[41] = Patient 3, C8-12 h, 24 h of growth
[42] = Patient 3, C12-24 h, 24 h of growth

CC1=C(C(=O)O)N2C(=O)[C@@H](NC(=O)[C@H](N)c3ccccc3)[C@H]2SC1 [Cephalexin]
not active: activity against Pseudomonas aeruginosa according to standard micro-broth dilution method (Pseudomonas aeruginosa)

C[C@H]1COc2c(N3CCN(C)CC3)c(F)cc3c(=O)c(C(=O)O)cn1c23 [Levofloxacin]
90: Degree of primary pathogen eradication, evaluation of ABEPP [1, 8] | Degree of primary pathogen eradication, evaluation of ABEPPMM [1, 8] | Degree of primary pathogen eradication, evaluation of ABEPP [1, 14] | Degree of primary pathogen eradication, evaluation of ABEPPMM [1, 14] | Degree of primary pathogen eradication, evaluation of ABEPP [1, 17] | Degree of primary pathogen eradication, evaluation of ABEPPMM [1, 17]
99: Degree of primary pathogen eradication, evaluation of ABEPPMM [1, 6] | Degree of primary pathogen eradication, evaluation of ABEPP [1, 7] | Degree of primary pathogen eradication, evaluation of ABEPPMM [1, 7] | Degree of primary pathogen eradication, evaluation of ABEPP [1, 15] | Degree of primary pathogen eradication, evaluation of ABEPPMM [1, 15] | Degree of primary pathogen eradication, evaluation of ABEPPMM [1, 20]
0: Degree of primary pathogen eradication, evaluation of ABEPP [1, 13] | Degree of primary pathogen eradication, evaluation of ABEPPMM [1, 13] | Degree of primary pathogen eradication, evaluation of ABEPPMM [1, 25] | Degree of primary pathogen eradication, evaluation of ABEPP [1, 26] | Degree of primary pathogen eradication, evaluation of ABEPPMM [1, 26] | Degree of primary pathogen eradication, evaluation of ABEPPMM [1, 30] | Degree of primary pathogen eradication, evaluation of ABEPP [1, 31] | Degree of primary pathogen eradication, evaluation of ABEPPMM [1, 31] | Degree of primary pathogen eradication, evaluation of ABEPPMM [1, 33] | Degree of primary pathogen eradication, evaluation of ABEPP [1, 34] | Degree of primary pathogen eradication, evaluation of ABEPPMM [1, 34] | Degree of primary pathogen eradication, evaluation of ABEPP [1, 35] | Degree of primary pathogen eradication, evaluation of ABEPPMM [1, 35] | Degree of primary pathogen eradication, evaluation of ABEPP [1, 36] | Degree of primary pathogen eradication, evaluation of ABEPPMM [1, 36] | Degree of primary pathogen eradication, evaluation of ABEPP [1, 37] | Degree of primary pathogen eradication, evaluation of ABEPPMM [1, 37] | Degree of primary pathogen eradication, evaluation of ABEPP [1, 39] | Degree of primary pathogen eradication, evaluation of ABEPPMM [1, 39] | Degree of primary pathogen eradication, evaluation of ABEPP [1, 40] | Degree of primary pathogen eradication, evaluation of ABEPPMM [1, 40] | Degree of primary pathogen eradication, evaluation of ABEPP [1, 41] | Degree of primary pathogen eradication, evaluation of ABEPPMM [1, 41] | Degree of primary pathogen eradication, evaluation of ABEPP [1, 42] | Degree of primary pathogen eradication, evaluation of ABEPPMM [1, 42]
4.7 µg/mL: lung concentration after 3 h of administration [2]
50: Degree of primary pathogen eradication, evaluation of ABEPP [1, 11] | Degree of primary pathogen eradication, evaluation of ABEPPMM [1, 11] | Degree of primary pathogen eradication, evaluation of ABEPP [1, 12] | Degree of primary pathogen eradication, evaluation of ABEPPMM [1, 12] | Degree of primary pathogen eradication, evaluation of ABEPP [1, 18] | Degree of primary pathogen eradication, evaluation of ABEPPMM [1, 18] | Degree of primary pathogen eradication, evaluation of ABEPP [1, 19] | Degree of primary pathogen eradication, evaluation of ABEPPMM [1, 19] | Degree of primary pathogen eradication, evaluation of ABEPP [1, 21] | Degree of primary pathogen eradication, evaluation of ABEPPMM [1, 21] | Degree of primary pathogen eradication, evaluation of ABEPP [1, 22] | Degree of primary pathogen eradication, evaluation of ABEPPMM [1, 22] | Degree of primary pathogen eradication, evaluation of ABEPP [1, 23] | Degree of primary pathogen eradication, evaluation of ABEPPMM [1, 23] | Degree of primary pathogen eradication, evaluation of ABEPP [1, 24] | Degree of primary pathogen eradication, evaluation of ABEPPMM [1, 24] | Degree of primary pathogen eradication, evaluation of ABEPP [1, 25] | Degree of primary pathogen eradication, evaluation of ABEPP [1, 27] | Degree of primary pathogen eradication, evaluation of ABEPPMM [1, 27] | Degree of primary pathogen eradication, evaluation of ABEPP [1, 28] | Degree of primary pathogen eradication, evaluation of ABEPPMM [1, 28] | Degree of primary pathogen eradication, evaluation of ABEPP [1, 29] | Degree of primary pathogen eradication, evaluation of ABEPPMM [1, 29] | Degree of primary pathogen eradication, evaluation of ABEPP [1, 30] | Degree of primary pathogen eradication, evaluation of ABEPP [1, 32] | Degree of primary pathogen eradication, evaluation of ABEPPMM [1, 32] | Degree of primary pathogen eradication, evaluation of ABEPP [1, 33] | Degree of primary pathogen eradication, evaluation of ABEPP [1, 38] | Degree of primary pathogen eradication, evaluation of ABEPPMM [1, 38]
100: Degree of primary pathogen eradication, evaluation of ABEPP [1, 6] | Degree of primary pathogen eradication, evaluation of ABEPP [1, 9] | Degree of primary pathogen eradication, evaluation of ABEPPMM [1, 9] | Degree of primary pathogen eradication, evaluation of ABEPP [1, 10] | Degree of primary pathogen eradication, evaluation of ABEPPMM [1, 10] | Degree of primary pathogen eradication, evaluation of ABEPP [1, 16] | Degree of primary pathogen eradication, evaluation of ABEPPMM [1, 16] | Degree of primary pathogen eradication, evaluation of ABEPP [1, 20]

CN[C@H](CC(C)C)C(=O)N[C@H]1C(=O)N[C@@H](CC(N)=O)C(=O)N[C@H]2C(=O)N[C@H]3C(=O)N[C@H](C(=O)N[C@H](C(=O)O)c4cc(O)cc(O)c4-c4cc3ccc4O)[C@H](O)c3ccc(c(Cl)c3)Oc3cc2cc(c3O[C@@H]2O[C@H](CO)[C@@H](O)[C@H](O)[C@H]2O[C@H]2C[C@](C)(N)[C@H](O)[C@H](C)O2)Oc2ccc(cc2Cl)[C@H]1O [Vancomycin]
5/8: Number of animals with positive microbial growth on the agar with antibiotics/total number of animals per group ([4]; Liver)
not active: activity against Pseudomonas aeruginosa according to standard micro-broth dilution method (Pseudomonas aeruginosa)
−: ATB efficacy ([3]; Algorithm #1, antibiotic at Cmax) | ATB efficacy ([3]; Algorithm #2, antibiotic at Cmax) | ATB efficacy [5]
8/8: Number of animals with positive microbial growth on the agar with antibiotics/total number of animals per group ([4]; Lungs)
+: ATB efficacy ([3]; Algorithm #1, antibiotic at C0-4 h) | ATB efficacy ([3]; Algorithm #2, antibiotic at C0-4 h)
6/8: Number of animals with positive microbial growth on the agar with antibiotics/total number of animals per group ([4]; Blood)
